Data: PubChem BioAssay (NCI)
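Growth conditions: 96-well plates. Treatment: test compound, 48 hours, 5 concentrations. Analysis: linear interpolation between bracketing concentrations; unreached endpoints set to highest concentration. GI50: concentration for 50% inhibition of growth. The concentration for full growth arrest is given as TGI.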

Columns and labels:
Assay in all cases: NCI anticancer screen, dose series, 48 h
HOP-62 NSCLC = tested on: HOP-62 NSCLC
MOLT-4 leukemia = tested on: MOLT-4 leukemia
ACHN renal = tested on: ACHN renal
786-0 renal = tested on: 786-0 renal
HL-60(TB) leukemia = tested on: HL-60(TB) leukemia
NCI-H460 lung = tested on: NCI-H460 lung
CCRF-CEM leukemia = tested on: CCRF-CEM leukemia
SF-295 CNS = tested on: SF-295 CNS
T-47D breast = tested on: T-47D breast
COLO 205 colon = tested on: COLO 205 colon
IGROV1 ovarian = tested on: IGROV1 ovarian
SF-268 CNS = tested on: SF-268 CNS
SNB-75 CNS = tested on: SNB-75 CNS
SR leukemia = tested on: SR leukemia
UACC-257 melanoma = tested on: UACC-257 melanoma
HT29 colon = tested on: HT29 colon
MCF7 breast = tested on: MCF7 breast
SK-OV-3 ovarian = tested on: SK-OV-3 ovarian
HS 578T breast = tested on: HS 578T breast
HCT-116 colon = tested on: HCT-116 colon
SK-MEL-2 melanoma = tested on: SK-MEL-2 melanoma
OVCAR-3 ovarian = tested on: OVCAR-3 ovarian
UO-31 renal = tested on: UO-31 renal
RXF 393 renal = tested on: RXF 393 renal
SN12C renal = tested on: SN12C renal
TK-10 renal = tested on: TK-10 renal
NCI-H23 lung = tested on: NCI-H23 lung
PC-3 prostate = tested on: PC-3 prostate
HCC-2998 colon = tested on: HCC-2998 colon
CAKI-1 renal = tested on: CAKI-1 renal
KM12 colon = tested on: KM12 colon
HOP-92 NSCLC = tested on: HOP-92 NSCLC
OVCAR-4 ovarian = tested on: OVCAR-4 ovarian
OVCAR-8 ovarian = tested on: OVCAR-8 ovarian
UACC-62 melanoma = tested on: UACC-62 melanoma
SNB-19 CNS = tested on: SNB-19 CNS
SK-MEL-28 melanoma = tested on: SK-MEL-28 melanoma
LOX IMVI melanoma = tested on: LOX IMVI melanoma
K-562 leukemia = tested on: K-562 leukemia
MDA-MB-231 breast = tested on: MDA-MB-231 breast
MDA-MB-435 = tested on: MDA-MB-435
NCI-H522 lung = tested on: NCI-H522 lung
RPMI-8226 leukemia = tested on: RPMI-8226 leukemia
MDA-MB-468 breast = tested on: MDA-MB-468 breast
EKVX NSCLC = tested on: EKVX NSCLC
OVCAR-5 ovarian = tested on: OVCAR-5 ovarian
HCT-15 colon = tested on: HCT-15 colon
NCI-H226 lung = tested on: NCI-H226 lung
SF-539 CNS = tested on: SF-539 CNS
U251 CNS = tested on: U251 CNS
BT-549 breast = tested on: BT-549 breast
MALME-3M melanoma = tested on: MALME-3M melanoma
A549 NSCLC = tested on: A549 NSCLC
DU-145 prostate = tested on: DU-145 prostate
NCI/ADR-RES ovarian = tested on: NCI/ADR-RES ovarian

SMILES: CC1=C2C(=C[C@@](C)(CO)[C@@H]2O)/C(=N\N)[C@](C)(O)C12CC2
- GI50 (HOP-62 NSCLC): 2.23 µM
- TGI (HOP-62 NSCLC): 5.32 µM
- GI50 (MOLT-4 leukemia): 2.4 µM
- TGI (MOLT-4 leukemia): > 100 µM
- GI50 (ACHN renal): 0.86 µM
- TGI (ACHN renal): 5.18 µM
- GI50 (786-0 renal): 2.97 µM
- TGI (786-0 renal): 9.08 µM
- GI50 (HL-60(TB) leukemia): 1.44 µM
- TGI (HL-60(TB) leukemia): 8.87 µM
- GI50 (NCI-H460 lung): 0.42 µM
- TGI (NCI-H460 lung): 6.63 µM
- GI50 (CCRF-CEM leukemia): 2.93 µM
- TGI (CCRF-CEM leukemia): > 100 µM
- GI50 (SF-295 CNS): 1.74 µM
- TGI (SF-295 CNS): > 100 µM
- GI50 (T-47D breast): 2.2 µM
- TGI (T-47D breast): 6.71 µM
- GI50 (COLO 205 colon): 1.65 µM
- TGI (COLO 205 colon): 3.65 µM
- GI50 (IGROV1 ovarian): 2.39 µM
- TGI (IGROV1 ovarian): 7.62 µM
- GI50 (SF-268 CNS): 2.66 µM
- TGI (SF-268 CNS): 21.8 µM
- GI50 (SNB-75 CNS): 1.36 µM
- TGI (SNB-75 CNS): 4.82 µM
- GI50 (SR leukemia): 2.12 µM
- TGI (SR leukemia): > 100 µM
- GI50 (UACC-257 melanoma): 2.25 µM
- TGI (UACC-257 melanoma): 5.19 µM
- GI50 (HT29 colon): 1.94 µM
- TGI (HT29 colon): 8.75 µM
- GI50 (MCF7 breast): 0.405 µM
- TGI (MCF7 breast): > 100 µM
- GI50 (SK-OV-3 ovarian): 2.91 µM
- TGI (SK-OV-3 ovarian): 7.87 µM
- GI50 (HS 578T breast): 2.88 µM
- TGI (HS 578T breast): 9.44 µM
- GI50 (HCT-116 colon): 1.33 µM
- TGI (HCT-116 colon): > 100 µM
- GI50 (SK-MEL-2 melanoma): 1.77 µM
- TGI (SK-MEL-2 melanoma): 3.33 µM
- GI50 (OVCAR-3 ovarian): 2.63 µM
- TGI (OVCAR-3 ovarian): 7.05 µM
- GI50 (UO-31 renal): 1.65 µM
- TGI (UO-31 renal): 4.66 µM
- GI50 (RXF 393 renal): 1.51 µM
- TGI (RXF 393 renal): 3.26 µM
- GI50 (SN12C renal): 2.33 µM
- TGI (SN12C renal): 6.66 µM
- GI50 (TK-10 renal): 3.1 µM
- TGI (TK-10 renal): 9.25 µM
- GI50 (NCI-H23 lung): 1.08 µM
- TGI (NCI-H23 lung): 2.9 µM
- GI50 (PC-3 prostate): 2.55 µM
- TGI (PC-3 prostate): 15.3 µM
- GI50 (HCC-2998 colon): 1.79 µM
- TGI (HCC-2998 colon): 3.77 µM
- GI50 (CAKI-1 renal): 2.44 µM
- TGI (CAKI-1 renal): > 100 µM
- GI50 (KM12 colon): 2.98 µM
- TGI (KM12 colon): > 100 µM
- GI50 (HOP-92 NSCLC): 2.54 µM
- TGI (HOP-92 NSCLC): 6.75 µM
- GI50 (OVCAR-4 ovarian): 2.44 µM
- TGI (OVCAR-4 ovarian): 7.16 µM
- GI50 (OVCAR-8 ovarian): 1.86 µM
- TGI (OVCAR-8 ovarian): 5.12 µM
- GI50 (UACC-62 melanoma): 1.74 µM
- TGI (UACC-62 melanoma): 3.23 µM
- GI50 (SNB-19 CNS): 2.51 µM
- TGI (SNB-19 CNS): 8.67 µM
- GI50 (SK-MEL-28 melanoma): 2.04 µM
- TGI (SK-MEL-28 melanoma): 4.11 µM
- GI50 (LOX IMVI melanoma): 1.62 µM
- TGI (LOX IMVI melanoma): 4.99 µM
- GI50 (K-562 leukemia): 2.02 µM
- TGI (K-562 leukemia): > 100 µM
- GI50 (MDA-MB-231 breast): 2.25 µM
- TGI (MDA-MB-231 breast): 6.52 µM
- GI50 (MDA-MB-435): 2.23 µM
- TGI (MDA-MB-435): 5.58 µM
- GI50 (NCI-H522 lung): 1.19 µM
- TGI (NCI-H522 lung): 3.64 µM
- GI50 (RPMI-8226 leukemia): > 100 µM
- TGI (RPMI-8226 leukemia): > 100 µM
- GI50 (MDA-MB-468 breast): 0.977 µM
- TGI (MDA-MB-468 breast): 2.77 µM
- GI50 (EKVX NSCLC): 2.17 µM
- TGI (EKVX NSCLC): 5.52 µM
- GI50 (OVCAR-5 ovarian): 0.518 µM
- TGI (OVCAR-5 ovarian): 33.8 µM
- GI50 (HCT-15 colon): 1.54 µM
- TGI (HCT-15 colon): > 100 µM
- GI50 (NCI-H226 lung): 2.11 µM
- TGI (NCI-H226 lung): 7.44 µM
- GI50 (SF-539 CNS): 1.85 µM
- TGI (SF-539 CNS): 3.83 µM
- GI50 (U251 CNS): 0.416 µM
- TGI (U251 CNS): > 100 µM
- GI50 (BT-549 breast): 1.69 µM
- TGI (BT-549 breast): 4.43 µM
- GI50 (MALME-3M melanoma): 1.7 µM
- TGI (MALME-3M melanoma): 3.25 µM
- GI50 (A549 NSCLC): 2.39 µM
- TGI (A549 NSCLC): 22.8 µM
- GI50 (DU-145 prostate): 0.812 µM
- TGI (DU-145 prostate): 30.5 µM

SMILES: NS(=O)(=O)c1ccc(-n2cc(-c3cccc(NC(=O)c4ccc(Cl)c(C(F)(F)F)c4)c3)nn2)cc1
- GI50 (MOLT-4 leukemia): 3.1 µM
- TGI (MOLT-4 leukemia): > 100 µM
- GI50 (SR leukemia): 3.9 µM
- TGI (SR leukemia): > 100 µM
- GI50 (NCI/ADR-RES ovarian): 80.7 µM
- TGI (NCI/ADR-RES ovarian): > 100 µM
- GI50 (HCT-15 colon): 7.8 µM
- TGI (HCT-15 colon): 68.5 µM
